Measurements taken from US10239843B2 (CANCER RESEARCH TECHNOLOGY LIMITED, priority 2014, dated 2019).
Where two headings read alike, the source gives them in different places.

Columns and labels:
PARG in HeLa cell line = assay: PARG cell assay (PAR chain immunofluorescence after MMS); type: cell-based; settings: HeLa cells, MMS treatment, read-out: PARG Cell IC50
Summary of the method: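 HeLa cells were dosed with compound for 1 h, then given MMS at 50 μg/mL final for a further hour. Cells were methanol-fixed, permeabilised and stained overnight at 4° C with anti-PAR monoclonal antibody. Retained nuclear PAR chains, detected by indirect immunofluorescence, indicate PARG inhibition.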

Human Full Length PARG = Human Full Length PARG (Homo sapiens (Human), UniProt Q86W56); assay: PARG enzyme assay (TR-FRET); type: biochemical; settings: read-out: PARG Biochem IC50
Sequence of Human Full Length PARG (Q86W56 whole entry): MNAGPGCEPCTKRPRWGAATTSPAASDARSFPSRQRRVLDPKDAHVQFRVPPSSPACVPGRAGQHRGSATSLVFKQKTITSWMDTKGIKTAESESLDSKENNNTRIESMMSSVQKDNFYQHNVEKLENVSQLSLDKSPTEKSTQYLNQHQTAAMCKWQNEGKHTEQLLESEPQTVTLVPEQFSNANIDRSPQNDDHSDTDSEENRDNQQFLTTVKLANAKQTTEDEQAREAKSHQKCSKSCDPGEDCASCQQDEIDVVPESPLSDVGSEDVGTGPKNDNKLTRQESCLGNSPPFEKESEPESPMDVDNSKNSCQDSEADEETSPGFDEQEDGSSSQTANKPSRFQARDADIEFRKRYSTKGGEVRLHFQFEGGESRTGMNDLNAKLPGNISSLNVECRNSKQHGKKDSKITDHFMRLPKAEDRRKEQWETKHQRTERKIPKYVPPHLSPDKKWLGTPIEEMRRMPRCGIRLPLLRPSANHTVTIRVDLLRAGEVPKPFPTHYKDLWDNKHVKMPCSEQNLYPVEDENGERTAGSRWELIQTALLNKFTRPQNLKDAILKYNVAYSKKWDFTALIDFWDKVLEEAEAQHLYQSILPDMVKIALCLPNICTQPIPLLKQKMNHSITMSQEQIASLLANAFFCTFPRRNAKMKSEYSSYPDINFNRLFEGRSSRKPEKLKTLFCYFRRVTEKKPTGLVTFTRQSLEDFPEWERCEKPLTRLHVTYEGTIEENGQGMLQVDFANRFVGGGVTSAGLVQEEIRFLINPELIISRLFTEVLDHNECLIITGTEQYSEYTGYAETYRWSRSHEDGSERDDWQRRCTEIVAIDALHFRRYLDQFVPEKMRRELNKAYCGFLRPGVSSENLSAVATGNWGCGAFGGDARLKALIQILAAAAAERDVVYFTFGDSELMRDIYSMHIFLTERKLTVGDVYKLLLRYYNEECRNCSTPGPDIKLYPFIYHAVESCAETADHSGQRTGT

IC50 (PARG in HeLa cell line; Homo sapiens) | IC50 (Human Full Length PARG) | IC50 (PARG in HeLa cell line) | Structure (SMILES)
177 nM | 207 nM |  | Cc1cc(Cn2c(=O)c3cc(S(=O)(=O)NC4(CF)CC4)ccc3n(Cc3noc(C)n3)c2=O)on1 [Example 558, N-[1-(Fluoromethyl)cyclopropyl]-3-[(3-methylisoxazol-5-yl)methyl]-1-[(5-methyl-1,2,4-oxadiazol-3-yl)methyl]-2,4-dioxo-quinazoline-6-sulfonamide]
60 nM | 85 nM |  | Cc1cc(Cn2c(=O)c3cc(S(=O)(=O)NC4(CF)CC4)ccc3n(Cc3cocn3)c2=O)on1 [Example 559, N-[1-(Fluoromethyl)cyclopropyl]-3-[(3-methylisoxazol-5-yl)methyl]-1-(oxazol-4-ylmethyl)-2,4-dioxo-quinazoline-6-sulfonamide]
 | 530 nM | 810 nM | Cn1cc(Cn2c(=O)c3cc(S(=O)(=O)NC4(CF)CC4)ccc3n(CCn3cccn3)c2=O)cn1 [Example 560, N-[1-(Fluoromethyl)cyclopropyl]-3-[(1-methylpyrazol-4-yl)methyl]-2,4-dioxo-1-(2-pyrazol-1-ylethyl)quinazoline-6-sulfonamide]
570 nM | 95 nM |  | Cc1cc(Cn2c(=O)n(Cc3cnn(C)c3)c(=O)c3cc(S(=O)(=O)NC4(CF)CC4)ccc32)[nH]n1 [Example 561, N-[1-(Fluoromethyl)cyclopropyl]-3-[(1-methylpyrazol-4-yl)methyl]-1-[(3-methyl-1H-pyrazol-5-yl)methyl]-2,4-dioxo-quinazoline-6-sulfonamide]
 | 192 nM | 598 nM | Cn1cc(Cn2c(=O)c3cc(S(=O)(=O)NC4(CF)CC4)ccc3n(Cc3ncnn3C)c2=O)cn1 [Example 562, N-[1-(Fluoromethyl)cyclopropyl]-3-[(1-methylpyrazol-4-yl)methyl]-1-[(2-methyl-1,2,4-triazol-3-yl)methyl]-2,4-dioxo-quinazoline-6-sulfonamide]
66 nM | 8 nM |  | Cn1cc(Cn2c(=O)c3cc(S(=O)(=O)NC4(CF)CC4)ccc3n(Cc3cncs3)c2=O)cn1 [Example 563, N-[1-(Fluoromethyl)cyclopropyl]-3-[(1-methylpyrazol-4-yl)methyl]-2,4-dioxo-1-(thiazol-5-ylmethyl)quinazoline-6-sulfonamide]

Continued, compound first:

Structure (SMILES) | IC50 (PARG in HeLa cell line; Homo sapiens) | IC50 (Human Full Length PARG) | IC50 (PARG in HeLa cell line)
Cc1noc(C)c1Cn1c(=O)n(Cc2cnn(C)c2)c(=O)c2cc(S(=O)(=O)NC3(CF)CC3)ccc21 [Example 545, 1-[(3,5-Dimethylisoxazol-4-yl)methyl]-N-[1-(fluoromethyl)cyclopropyl]-3-[(1-methylpyrazol-4-yl)methyl]-2,4-dioxo-quinazoline-6-sulfonamide] | 168 nM | 145 nM | 
Cc1nc(Cn2c(=O)n(Cc3cnn(C)c3)c(=O)c3cc(S(=O)(=O)NC4(CF)CC4)ccc32)no1 [Example 546, N-[1-(Fluoromethyl)cyclopropyl]-1-[(5-methyl-1,2,4-oxadiazol-3-yl)methyl]-3-[(1-methylpyrazol-4-yl)methyl]-2,4-dioxo-quinazoline-6-sulfonamide] | 182 nM | 152 nM | 
Cc1nc(Cn2c(=O)n(Cc3cnn(C)c3)c(=O)c3cc(S(=O)(=O)NC4(CF)CC4)ccc32)n(C)n1 [Example 547, 1-[(2,5-Dimethyl-1,2,4-triazol-3-yl)methyl]-N-[1-(fluoromethyl)cyclopropyl]-3-[(1-methylpyrazol-4-yl)methyl]-2,4-dioxo-quinazoline-6-sulfonamide] | 751 nM | 188 nM | 
Cc1ncc(Cn2c(=O)n(Cc3cnn(C)c3)c(=O)c3cc(S(=O)(=O)NC4(CF)CC4)ccc32)o1 [Example 548, N-[1-(Fluoromethyl)cyclopropyl]-1-[(2-methyloxazol-5-yl)methyl]-3-[(1-methylpyrazol-4-yl)methyl]-2,4-dioxo-quinazoline-6-sulfonamide] | 63 nM | 34 nM | 
CC(C)Cn1c(=O)n(Cc2cnn(C)c2)c(=O)c2cc(S(=O)(=O)NC3(CF)CC3)ccc21 [Example 549, N-[1-(Fluoromethyl)cyclopropyl]-1-isobutyl-3-[(1-methylpyrazol-4-yl)methyl]-2,4-dioxo-quinazoline-6-sulfonamide] |  | 140 nM | 91 nM
Cc1cc(Cn2c(=O)c3cc(S(=O)(=O)NC4(CF)CC4)ccc3n(Cc3csc(C)n3)c2=O)on1 [Example 550, N-[1-(Fluoromethyl)cyclopropyl]-3-[(3-methylisoxazol-5-yl)methyl]-1-[(2-methylthiazol-4-yl)methyl]-2,4-dioxo-quinazoline-6-sulfonamide] |  | 191 nM | 134 nM
Cc1cc(Cn2c(=O)c3cc(S(=O)(=O)NC4(CF)CC4)ccc3n(Cc3nncn3C)c2=O)on1 [Example 551, N-[1-(Fluoromethyl)cyclopropyl]-3-[(3-methylisoxazol-5-yl)methyl]-1-[(4-methyl-1,2,4-triazol-3-yl)methyl]-2,4-dioxo-quinazoline-6-sulfonamide] | 20400 nM | 404 nM | 
Cc1cc(Cn2c(=O)c3cc(S(=O)(=O)NC4(CF)CC4)ccc3n(Cc3nnc(C)s3)c2=O)on1 [Example 552, N-[1-(Fluoromethyl)cyclopropyl]-3-[(3-methylisoxazol-5-yl)methyl]-1-[(5-methyl-1,3,4-thiadiazol-2-yl)methyl]-2,4-dioxo-quinazoline-6-sulfonamide] | 157 nM | 175 nM | 
Cc1cc(Cn2c(=O)c3cc(S(=O)(=O)NC4(CF)CC4)ccc3n(Cc3ncn(C)n3)c2=O)on1 [Example 553, N-[1-(Fluoromethyl)cyclopropyl]-3-[(3-methylisoxazol-5-yl)methyl]-1-[(1-methyl-1,2,4-triazol-3-yl)methyl]-2,4-dioxo-quinazoline-6-sulfonamide] |  | 451 nM | 1510 nM
Cc1cc(Cn2c(=O)c3cc(S(=O)(=O)NC4(CF)CC4)ccc3n(Cc3nc(C)nn3C)c2=O)on1 [Example 554, 1-[(2,5-Dimethyl-1,2,4-triazol-3-yl)methyl]-N-[1-(fluoromethyl)cyclopropyl]-3-[(3-methylisoxazol-5-yl)methyl]-2,4-dioxo-quinazoline-6-sulfonamide] | 604 nM | 499 nM | 
Cc1cc(Cn2c(=O)c3cc(S(=O)(=O)NC4(CF)CC4)ccc3n(Cc3cnn(C)c3)c2=O)on1 [Example 555, N-[1-(Fluoromethyl)cyclopropyl]-3-[(3-methylisoxazol-5-yl)methyl]-1-[(1-methylpyrazol-4-yl)methyl]-2,4-dioxo-quinazoline-6-sulfonamide] | 86 nM | 49 nM | 
Cc1cc(Cn2c(=O)c3cc(S(=O)(=O)NC4(CF)CC4)ccc3n(Cc3nnc(C)o3)c2=O)on1 [Example 556, N-[1-(Fluoromethyl)cyclopropyl]-3-[(3-methylisoxazol-5-yl)methyl]-1-[(5-methyl-1,3,4-oxadiazol-2-yl)methyl]-2,4-dioxo-quinazoline-6-sulfonamide] | 1030 nM | 348 nM | 
Cc1cc(Cn2c(=O)c3cc(S(=O)(=O)NC4(CF)CC4)ccc3n(Cc3ncnn3C)c2=O)on1 [Example 557, N-[1-(Fluoromethyl)cyclopropyl]-3-[(3-methylisoxazol-5-yl)methyl]-1-[(2-methyl-1,2,4-triazol-3-yl)methyl]-2,4-dioxo-quinazoline-6-sulfonamide] | 857 nM | 368 nM | 
